In brackets after ≈: the same amount, converted by molar mass.
How the values were obtained:
[1] = DPPH radical scavenging assay; details: for DPPH radical scavenging activity (IC50): positive control ascorbic acid
Magnaporthe grisea = experiment: microbe, parasite or virus in culture; format: cell-based; details: Pyricularia oryzae, read-out: MIC against Magnaporthe grisea
Panagrellus redivivus = experiment: Nematicidal assay; format: in vivo; details: for nematicidal activity (LD50): Panagrellus redivivus, n.a. = no activity; for nematicidal activity against Panagrellus redivivus: result in words
[2] = system: brine shrimp (Artemia salina); format: in vivo; details: for brine shrimp lethality (LD50): Artemia salina, n.a. = no activity; for lethal activity against brine shrimp: result in words
S. aureus = experiment: Antimicrobial broth microdilution assay; format: cell-based, Staphyloccocus aureus; details: Staphylococcus aureus, read-out: MIC against S. aureus

## C=CC(C)(C)c1[nH]c2c(C[C@H](O)C(C)(C)O)cccc2c1/C=C1\NC(=O)[C@H](C)NC1=O [Compound 6, rubrumazine B]
[1]
  DPPH radical scavenging activity (IC50): 28.5 µg/mL
Magnaporthe grisea
  MIC: 64 µg/mL (≈ 150 µM)

## C=CC(C)(C)c1[nH]c2ccccc2c1/C=c1\[nH]c(=O)c(=C)[nH]c1=O [Compound 7, neoechinulin B]
Panagrellus redivivus
  nematicidal activity (LD50): >200 µg/mL
[2]
  brine shrimp lethality (LD50): 105.2 µg/mL
  lethal activity against brine shrimp: weaklethal activities
[1]
  DPPH radical scavenging activity (IC50): 10.9 µg/mL

## C=CC(C)(C)c1[nH]c2c(CC=C(C)C)cc(CC=C(C)C)cc2c1C[C@@H]1NC(=O)[C@H](C)NC1=O [Compound 11, echinulin]
Panagrellus redivivus
  nematicidal activity against Panagrellus redivivus: did not show any activity
[2]
  lethal activity against brine shrimp: did not show any activity
[1]
  DPPH radical scavenging activity (IC50): 13.8 µg/mL
S. aureus
  MIC: 256 µg/mL (≈ 555 µM)

## O=C1O[C@H]([C@@H](O)CO)C(O)=C1O [Ascorbic Acid, ascorbic acid, reference compound]
[1]
  DPPH radical scavenging activity (IC50): 2.0 µg/mL

## C=CC(C)(C)c1[nH]c2c(CC=C(C)CO)cc(CC=C(C)C)cc2c1CC1NC(=O)C(C)NC1=O (centres unmarked) [Compound 3, 30-Hydroxyechinulin]
[2]
  brine shrimp lethality (LD50): 138.1 µg/mL
  lethal activity against brine shrimp: weaklethal activities

## C=CC(C)(C)c1[nH]c2c(CC=C(C)CO)cc(CC=C(C)C)cc2c1CC1NC(=O)C(C)NC1=O (centres unmarked) [Compound 4, 29-hydroxyechinulin]
[2]
  brine shrimp lethality (LD50): 140.6 µg/mL
  lethal activity against brine shrimp: weaklethal activities

## C=CC(C)(C)c1[nH]c2c(CC=C(C)C)cc(CC=C(C)C)cc2c1C=C1NC(=O)C(C)NC1=O (centres unmarked) [Compound 12, dehydroechinulin]
Panagrellus redivivus
  nematicidal activity against Panagrellus redivivus: did not show any activity
[2]
  lethal activity against brine shrimp: did not show any activity
[1]
  DPPH radical scavenging activity (IC50): 6.4 µg/mL
[1]; result in words
  radical scavenging activity against DPPH radicals: potent radical scavenging activity
S. aureus
  MIC: 256 µg/mL (≈ 557 µM)

## C=CC(C)(C)c1[nH]c2cc(CC=C(C)C)ccc2c1/C=C1\NC(=O)C(C)(OC)NC1=O (centres unmarked) [Compound 2, isovariecolorin I]
Panagrellus redivivus
  nematicidal activity (LD50): 110.3 µg/mL
  nematicidal activity against Panagrellus redivivus: weak nematicidal effect
[2]
  brine shrimp lethality (LD50): 19.4 µg/mL
  lethal activity against brine shrimp: potent lethal activity
[1]
  DPPH radical scavenging activity (IC50): 20.6 µg/mL

## C=CC(C)(C)c1[nH]c2ccccc2c1/C=C1\NC(=O)C(C)(OC)NC1=O (centres unmarked) [Compound 13, variecolorin H]
[1]
  DPPH radical scavenging activity (IC50): 18.7 µg/mL
S. aureus
  MIC: 256 µg/mL (≈ 724 µM)

## C=CC(C)(C)c1[nH]c2cc(CC=C(C)C)ccc2c1C=c1[nH]c(=O)c(=C)[nH]c1=O [Compound 8, neoechinulin C]
Panagrellus redivivus
  nematicidal activity (LD50): >200 µg/mL
[2]
  brine shrimp lethality (LD50): 70.1 µg/mL
[1]
  DPPH radical scavenging activity (IC50): 12.1 µg/mL

## C=CC(C)(C)c1[nH]c2c(CC=C(C)C)cc(CC=C(C)C)cc2c1C[C@@H]1NC(=O)C(=C)NC1=O [Compound 10, didehydroechinulin]
Panagrellus redivivus
  nematicidal activity (LD50): 126.4 µg/mL
  nematicidal activity against Panagrellus redivivus: weak nematicidal effect
[2]
  brine shrimp lethality (LD50): 27.1 µg/mL
  lethal activity against brine shrimp: potent lethal activity
[1]
  DPPH radical scavenging activity (IC50): 13.3 µg/mL

Reference: PMC5334605, “Indolediketopiperazine Alkaloids from Eurotium cristatum EN-220, an Endophytic Fungus Isolated from the Marine Alga Sargassum thunbergii” (Marine Drugs, 2017)
